Assay results taken from the METLIN SMRT retention time set (Domingo-Almenara et al. 2019).

Assay: gradient 5% acetonitrile 3 min, to 50% in 2 min, to 85% in 15 min, held 3 min, 100 µL/min
Conditions: column: Zorbax Extend-C18 2.1 x 50 mm; eluents: water / acetonitrile, 0.1% formic acid
Procedure, shortened: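 Data were gathered over 3 months by HPLC coupled to a quadrupole time-of-flight mass spectrometer, operated in positive and negative ionization mode. Mixtures of ~100 pure standards ran on a Zorbax Extend-C18 column (2.1 × 50 mm, 1.8 μm) at 100 μL/min, with water and acetonitrile each containing 0.1% formic acid and dead and dwell volumes of 40 μL and 900 μL. Retention time was read from adduct peaks picked by computer and checked manually.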

RP-LC retention time [s] | SMILES
788 | CCCCOc1ccc(NC(=O)c2cc(=O)c3ccc(C)c(C)c3o2)c2cccnc12
806 | COc1ccccc1C1(CNS(=O)(=O)c2ccc(NC(=O)C(C)C)cc2)CCOCC1
997 | C=CCN1N=C(C(=O)N2CCC(C)CC2)S(=O)(=O)c2ccc(Cl)cc21
1090 | CCc1cc(=O)n(CC(=O)Nc2ccccc2)c(-c2ccccc2)n1
774 | COCCNC(=O)C1CCN(c2nc3ccc(-c4ccsc4)nc3s2)CC1
573 | CC(C)Cn1cc(NC(=O)N2CCN(c3ccccn3)CC2)c2ccccc2c1=O
636 | Cc1ccn2cc(C(=O)NCc3ccccc3)nc2c1
1080 | CCCn1c2ccccc2c2nnc(SCC(=O)Nc3nc(-c4ccccc4)cs3)nc21
920 | Cc1cccc(S(=O)(=O)N2C[C@@H]3CN(S(=O)(=O)c4c(C)noc4C)C[C@H](C2)O3)c1
836 | Cc1cc2c(c(=O)n(-c3ccccc3)c(=O)n2CC(=O)Nc2cccc(Br)c2)n1C
626 | COc1ccc(CN2CCc3nc(N4CCN(c5ncccn5)CC4)ncc3C2)cc1OC
802 | COc1cc(/C=C2\CCOC2=O)cc(OC)c1OC
885 | CCNC(=O)N1CCN(c2ccc(-c3noc(C4CC(=O)N(c5ccc(C)c(C)c5)C4)n3)cc2)CC1 (stereo not drawn)
907 | O=C(NC1CCN(Cc2ccccc2)CC1)C1CCCN(c2cnc3nccnc3c2)C1 (stereo not drawn)
1070 | Cc1ccc(-c2csc(NC(=O)c3c(-c4ccc(F)cc4)nc4n3CCS4(=O)=O)n2)cc1
736 | CCN1CCn2cc(S(=O)(=O)Nc3ccc(F)cc3Cl)cc2C1=O
764 | CCOc1cc(-c2ccc(C)cc2)nc2ccc(NC(=O)c3ccco3)cc12
942 | Cn1cc(SCC(=O)N2CCCc3ccccc32)c2ccccc21
752 | COc1cccc(NC(=O)C2CCN(C(=O)C3Sc4ccccc4NC3=O)CC2)c1 (stereo not drawn)
588 | O=C(NCc1cccc(Oc2ccc(F)cc2)c1)c1cccnc1
895 | O=c1[nH]c2ccccc2nc1-c1cc(Cl)ccc1NS(=O)(=O)c1ccccc1
921 | COc1ccc(-c2nnc(COc3ccc(NC(=O)c4ccc(C)s4)cc3)o2)cc1

RP-LC retention time [s] | SMILES
740 | CC(C)C(=O)NCc1csc(C2CCN(C(=O)C3(c4ccccc4)CC3)CC2)n1
591 | Cc1ccsc1CN1CCn2c(nnc2[C@@H]2C[C@@H](O)CN2Cc2cccnc2)C1
1030 | CCCCCNC(=O)c1ccc(Oc2nccnc2N2CCSCC2)cc1
783 | CN1C(=O)CCc2cc(NS(=O)(=O)c3cccc(Cl)c3)ccc21
802 | O=C(NCC1(c2cccs2)CCOCC1)C(=O)Nc1ccc2c(c1)OCCO2
560 | COC(=O)c1ccc(C(=O)NCC(c2ccccc2Cl)N(C)C)cc1 (stereo not drawn)
738 | O=C(Cn1cccc1-c1nc(-c2ccc3c(c2)OCO3)no1)Nc1ccc(Cl)cc1F
745 | CC(C)(C)C1CCc2[nH]nc(C(N)=O)c2C1 (stereo not drawn)
612 | COC(=O)c1ccccc1NC(=O)Cn1c(N2CCCC2)nc(C)cc1=O
687 | Cc1cccc(OCC(=O)N2CCCC(c3n[nH]c(C4CC4)n3)C2)c1 (stereo not drawn)
721 | Cc1cc2c(cc1S(=O)(=O)N1CCCC1C(=O)NCc1ccccc1)OCC(=O)N2 (stereo not drawn)
933 | COc1cccc(NC(=O)Nc2ccc3c(c2)CCN3S(=O)(=O)c2ccccc2)c1
803 | Cc1ccccc1-c1noc(-c2cccnc2N2CCN(Cc3ccccc3)CC2)n1
758 | CCc1nc2cc(N3CCC(C(=O)NC(C)CC)CC3)cnc2nc1CC (stereo not drawn)
1070 | Cc1c(Cl)cccc1NC(=O)Cn1cnc2c(sc3nc(-c4ccccc4)ccc32)c1=O
774 | COCCNC(=O)C1COc2ccc(NC(=O)c3ccc(Br)cc3)cc2C1 (stereo not drawn)
618 | Cc1c(CCO)c(=O)n2n1CCCC2
757 | CCN1c2cc(Cl)ccc2C(=O)NC12CCN(C(=O)NCc1ccccc1)CC2
845 | O=C(COc1ccc2c(-c3ccccc3)cc(=O)oc2c1)N1CCC2(O)CCCCC2C1 (stereo not drawn)
856 | O=C(CCC1CCCN(C(=O)Nc2ccc(F)cc2)C1)NCc1ccc(Cl)cc1 (stereo not drawn)
966 | O=C(Cc1c(Sc2ccc(F)cc2)[nH]c2ccccc12)N1CCN(c2ncccn2)CC1
847 | COc1cc(NC(=O)C2(Cc3ccccc3)CCCCC(=O)N2)cc(OC)c1 (stereo not drawn)

RP-LC retention time [s] | SMILES
1160 | Cc1cc(C)cc(Nc2nc(C)cc3nn(CC(=O)N(C)c4ccccc4)c(=O)n23)c1
860 | Cc1ccc2c(c1)C(C)(C)C(=O)N2CC(=O)N1CCCCC1
843 | COCCCNc1nc(-c2ccc(C(C)(C)C)cc2)nc2ccccc12
859 | O=C(NCC1CCCO1)NC1CCN(c2nc3cccnc3n(Cc3ccccc3)c2=O)CC1 (stereo not drawn)
898 | O=c1c2nc(-c3ccc(Br)cc3)cn2ccn1-c1cccc(F)c1
593 | Cc1ccc(CN2CCC(c3nc(-c4cnccn4)n[nH]3)CC2)c(C)c1
661 | O=C(Nc1ccc(F)cc1F)c1ncccn1
1140 | Cc1cc2nc(C(F)(F)F)c(=O)n(C(C)C(=O)NCCCOC(C)C)c2cc1C (stereo not drawn)
692 | O=C(NC1CCN(c2cc(-c3ccccc3)[nH]n2)C1)c1ccccc1Cl (stereo not drawn)
701 | O=S(=O)(Nc1ccc(Cn2cncn2)cc1)c1ccc(F)cc1
1050 | COc1ccc(N2C(=O)C3N=NN(Cc4nc(-c5ccc(C)c(C)c5)no4)C3C2=O)cc1 (stereo not drawn)
714 | Cn1c(C2CCN(C(=O)Nc3cccc(Br)c3)CC2)cc(=O)n2nccc12
1160 | Cc1ccc(-c2ccc(-n3nc(C)c(S(=O)(=O)NCC(C)C)c3C)nn2)cc1
755 | O=C(NCc1ccccc1F)c1ccc2c(c1)CN(CC1=Cc3ccccc3OC1)CCO2
735 | O=C(NCCC1CCN(C(=O)Nc2cc(F)cc(F)c2)CC1)C1CC1
1060 | COc1ccc(-c2nnc(-c3ccccc3Cl)o2)cc1S(=O)(=O)N1CCCCC1
527 | Cn1ccc(C(=O)N2CCNC(=O)C2(C)C)n1
602 | O=C(CN1CCN(C(=O)Nc2ccc(Br)cc2)CC1=O)NCCN1CCCCC1
590 | Cn1ccnc1C(=O)N1CCC(Cc2noc(C3CC3)n2)C1 (stereo not drawn)
686 | CCS(=O)(=O)N1CCCC(c2nc(C(C)C)no2)CCNC(=O)CC1 (stereo not drawn)
1320 | CCN(C(=O)c1ccc(C)cc1)c1nc(-c2ccc(C)cc2)cs1
717 | CCCNC(=O)c1ncn2c1C(=O)N(C1CC1)C(C)(C(=O)NCc1cccc(C)c1)C2 (stereo not drawn)

RP-LC retention time [s] | SMILES
940 | O=C(Nc1ccccc1F)N1CCCC1c1nc(-c2ccccc2)no1 (stereo not drawn)
645 | Cc1ccc2c(Nc3ccc4c(c3)OCCO4)c(C(=O)N3CCCC(C)C3)cnc2n1 (stereo not drawn)
697 | CCOc1ccccc1NC(=O)C(=O)NCc1cc(C)oc1C
674 | COc1ccc(Nc2c(-c3ccc(N4CCOCC4)cc3)nc3cnccn23)cc1OC
908 | CCOC(=O)C(C(=O)Nc1ccccn1)C1CCCCC1 (stereo not drawn)
856 | CCN1C(=O)c2cccnc2Sc2cc(NC(=O)Cc3ccccc3Cl)ccc21
807 | CCc1nnc(-c2cc(C)n(CC(=O)Nc3cc(OC)cc(OC)c3)c2C)o1
720 | CCn1nc(C)c(CCNC(=O)c2ccc3nc(Cc4ccccc4)oc3c2)c1C
570 | OC(COc1ccc(Cl)cc1Cl)CN1CCCC1 (stereo not drawn)
918 | Cc1cccc(C(=O)Nc2nc(-c3ccc4c(c3)NC(=O)CO4)c(C)s2)c1
1280 | CCNC(=O)NS(=O)(=O)c1sc(CC(C)C)cc1-c1ccc(Cn2c(-c3ccccc3)nc(OC)c2C=O)cc1
1170 | CC(C)C(=O)Nc1cc(-c2ccccc2)nn(C(C)C(=O)Nc2ccccc2Cl)c1=O (stereo not drawn)
712 | CC(C)n1cnc(S(=O)(=O)N2CCC(C(=O)NCc3ccccc3)CC2)c1
823 | CCOCCCNC(=O)C(CC)n1nc(C)c2nn(-c3ccccc3)c(C)c2c1=O (stereo not drawn)
681 | O=C(CN1CCC2(CC1)N=C(c1ccc(Cl)cc1)C(=O)N2)Nc1ccc2c(c1)OCO2
856 | COCCN1C(=O)c2ccccc2C(C(=O)NCc2ccccc2)C12CCCCC2 (stereo not drawn)
660 | CC(C)NC(=O)C1CCCN(c2nc3ncn(CC(=O)NCc4cccs4)c(=O)c3s2)C1 (stereo not drawn)
597 | Cc1ccc(NC(=O)C2CCCN(c3ccc(-n4ccnc4)nn3)C2)cc1F (stereo not drawn)
682 | Cc1cc(S(=O)(=O)N2CCN(c3nc4ccncc4n(C)c3=O)CC2)ccc1F
610 | CCCN1CCN(c2ncc(C(=O)Nc3ccccc3)c(N)n2)CC1
694 | CCCNc1cc(N2CCC(CCC(=O)NCc3ccc(F)cc3F)CC2)ncn1
1030 | Cc1cccc(C)c1N1CCN(C(=O)c2cccc(F)c2)CC1
